Data on 1 compound can be found in patent US12611400B2, “Solid lipid nano-composition containing berberine and cinnamonaldehyde effective in treating diabetes, dyslipidemia, and method of preparing the same” (priority 2020, dated 2026).

The assay deals with white mouse models of P-407-induced dyslipidemia. Nature of the assay: Dyslipidemia regulation effects in P-407-induced endogenous dyslipidemia model in white mice. The class given is in vivo. As to conditions: oral 100 mg/kg, 7 days; for Total cholesterol: Reduction in comparison with the model batch: 100 mg/kg. The protocol: The test on white mice was divided into 5 batches, each batch having 10 animals. The batches were subjected to injection and oral administration as follows: • Batch 1 (biological control): 0.9% saline was intraperitoneally injected at a volume of 0.1 mL/10 g mouse body weight and 0.2 mL/10 g distilled water was orally administered. • Batch 2 (model): 2% P-407 solution was intraperitoneally injected at 200 mg/kg (0.1 mL/10 g), and 0.2 mL/10 g distilled water was orally administered. • Batch 3 (positive control): 2% P-407 solution was intraperitoneally injected at 200 mg/kg (0.1 mL/10 g), and 100 mg/kg (0.2 mL/10 g) atorvastatin was orally administered. • Batch 4: 2% P-407 solution was intraperitoneally injected at 200 mg/kg (0.1 mL/10 g), the composition was orally administered at 0.24 g/kg/day (equivalent to the clinical intended dose), at 0.2 mL/10 g. • Batch 5: 2% P-407 solution was intraperitoneally injected at 200 mg/kg dose (0.1 mL/10 g), the composition was orally administered at dosage 0.72 g/kg/day (3 times as much as the clinical intended dose), at 0.2 mL/10 g.
White mice were subjected to oral administration of distilled water and the sample drug in 7 continuous days before the intraperitoneal injection with P-407 solution. After P-407 injection, the mice were left to starve completely but were free to drink water. After 24 hours from the P-407 injection, all of the mice received carotid arterial blood sampling for TG, TC, and HDL-C quantitative testing. Non-HDL-C levels were calculated based on the following formula: Non-HDL-C=TC−HDL-C (mmol/L) Test Results Total Cholesterol Levels

Setting [1] is: white mouse blood, 24 h after P-407 200 mg/kg i.p., n = 10.

Turning to `CC(C)c1c(C(=O)Nc2ccccc2)c(-c2ccccc2)c(-c2ccc(F)cc2)n1CC[C@@H](O)C[C@@H](O)CC(=O)O` [Atorvastatin, atorvastatin], the Non-HDL-cholesterol level (Non-HDL-C=TC−HDL-C, white mouse blood, 24 h after P-407, n = 10) was 6.08 ± 0.88 mmol/L. For the setting “P-407 model”, the “Non-HDL-cholesterol: Reduction in comparison with the model” value is given as 12.1% and the “Total cholesterol: Reduction in comparison with the model batch” value is reported as 5.7%. Besides, the “HDL-C level change versus model batch (↑ increase)” value (P-407 model, given with ↑) is on record as “(↑ 19.1%)”. Also, the “Total cholesterol: Reduction in comparison with the model batch” value (P-407 model, listed as atorvastatin) stood at 5.7%. For the setting “P-407 model, negative = increase”, the “Triglyceride: Reduction in comparison with the model batch” value is −46.3%. Under setting [1], the HDL-C level was 2.12 ± 0.41 mmol/L, the Total cholesterol level turned out to be 8.20 ± 1.01 mmol/L and the Triglyceride level is 9.77 ± 1.05 mmol/L.
